Results reported in US20250122295A1, “METHOD OF TREATMENT OF PHILADELPHIA CHROMOSOME POSITIVE LEUKEMIA” (CSL LIMITED, priority 2014, published 2025).

System: GM-CSF-induced STAT5 phosphorylation in KU812 cells
Conditions: dasatinib alone 100 nM, GM-CSF 4 ng/ml for 10 minutes, FIG. 6
Procedure: KU812 cells (a myeloid precursor cell line established from the peripheral blood of a patient in blast crisis of CML) were cultured with 100 nM dasatinib with or without Bion-1 (100 nM) and constitutively stimulated with GM-CSF (4 ng/ml) for 10 minutes.

With `Cc1nc(Nc2ncc(C(=O)Nc3c(C)cccc3Cl)s2)cc(N2CCN(CCO)CC2)n1` [dasatinib] the “inhibition of p-STAT5 phosphorylation in the presence of GM-CSF” value was “does not inhibit”.
